Assay results: US6432426B1, “Non-staining topical iodine composition and method” (Symbollon Corporation, priority 1998, dated 2002)

How the values were obtained:
epidermis = assay: Staining of epidermis by triiodide solutions, 10 second contact on forearm; assay type: in vivo, human
Protocol: 3. […] Solutions of triiodide were prepared by dissolving elemental iodine into oxygen-free solutions of sodium iodide that were at a pH of 4.5. A molar excess of iodide was used. Based on thiosulfate titrations, potentiometric measurements of iodine and ion selective electrode measurements of iodide ion, essentially all of the elemental iodine was converted into triiodide. Solutions of triiodide were made that varied from 100 to 25,000 ppm. Four mL of each sample was transferred to a 1.0 dram vial (Kimble catalog #60931) at room temperature and placed on the forearm of a subject and then the forearm was inverted to initiate contact of the sample with the triiodide solution. The samples were held on the arm for 10 seconds.
The contact areas were checked for stains at 10 minutes and 3 hours after exposure.

Human Skin = assay: Coloration of human skin by a 30 second exposure (vial contact on forearm); hue by Pantone chips, intensity against Brown No. 3 dye; assay type: in vivo
Excerpt: 1. […] Elemental iodine was weighed on an analytical balance and dissolved in one liter of water that had been acidified with 2 drops of 0.1N hydrochloric acid. The concentration of molecular iodine in the water was confirmed by potentiometric analysis (Gottardi, W., 1983. Fresenius Z. Anal. Chem., Vol. 314, pages 582-585). Samples were also titrated with thiosulfate to determine that at least 95% of the theoretical yield of titratable iodine was in the form of molecular iodine as opposed to triiodide. The concentration of molecular iodine was varied from 25 ppm to 330 ppm.
One dram vials (Kimble catalog #60931) were used to deliver 4 mL of the room temperature iodine solutions samples. The vials were placed on the forearm of a subject and then the forearm was inverted to initiate contact of the sample with the iodine solution. The contact area was a circle with a diameter of 1.3 cm. The samples were held on the arm for 30 seconds at room temperature. Three different subjects were used for this experiment. Immediately after the 30 second contact time the arms of the subjects were examined for stains; 10 minutes after the end of the contact time all subjects arms were examined for stains again..
For the purposes of this application, two different parameters were used to characterize the color and intensity of the term stain. The hue of the color imparted to skin was characterized by using the Pantone Color Matching System (Pantone Color Specifier, Pantone Inc., Carlstadt, N.J.) which allows comparison with 1,012 defined colors on two types of paper. Stains from triiodide were matched to the Pantone color chip No. 152C. Short-lived coloration from molecular iodine were matched to the Pantone color chip 1375C.
The intensity of any coloration on skin was characterized by applying an aqueous solution of known concentrations of a food dye, Brown No. 3 (Crompton & Knowles, Mahwah, N.J. —Code DP935159), for 10 seconds using the method described above for application of iodine. Brown No. 3 was applied to the skin at concentrations that ranged from 500 ppm to 30 ppm and the intensity of the color from Brown No. 3 was compared to the intensity of coloration from iodine compositions. For instance, the intensity of color 10 minutes after a 30 second contact with a 600 ppm aqueous triiodide solution was equivalent to the color from a 10 second exposure to a 250 ppm Brown No. 3 solution. In contrast, the intensity of color 10 minutes after a 30 second contact with a 300 ppm aqueous molecular iodine solution was equivalent to the color from a ten second exposure to a 30 ppm Brown No. 3 solution which is barely discernible.

Staphylococcus aureus = assay: Residual biocidal effect of skin associated iodine, colony counts from inoculated treated skin; assay type: in vivo; conditions: solution with 700 ppm of triiodide, but no molecular iodine
Protocol: 5. […] […] […] […] The samples were contacted with the arm for 30 seconds. After contact the treated arm was flushed with water for 15 seconds and dried.
[…] Two hours after contact each area was inoculated with […] of a 1:100 dilution of a 48 hour soy-trypticase culture of Staphylococcus aureus. Ninety minutes after inoculation the mouths of sterile 25 mL flasks filled with 2 mL of soy-trypticase with 2% Tween 80 were placed over the marked skin areas. The flasks were gently shaken for 1 minute and a colony count was performed on blood agar plates after incubation at 37° C. for 48 hours. The residual biocidal effect from skin associated molecular iodine was determined by subtracting the log of the colony counts from the areas of skin that were contacted with iodine from the controls (log colony count from untreated skin). The average difference in colony counts between treated and untreated skin was 2.4 logs.

## I[IH]I [triiodide, reference compound]
epidermis; 100 ppm triiodide
  Staining at three hours: staining was present at three hours but it was not visibly noticeable
epidermis; 700 ppm triiodide, 3 hours after contact
  Degree of color: minimally discernable
epidermis; triiodide at concentrations from 25,000 to 700 ppm
  Coloration of the epidermis 3 hours after contact: A definite coloration of the epidermis was evident
Human Skin; 10 minutes after a 30 second contact with a 600 ppm aqueous triiodide solution
  Intensity of color on skin, equivalent Brown No. 3 solution (10 second exposure): 250 ppm
Human Skin; Pantone Color Matching System
  Hue of the color imparted to skin, matched Pantone color chip: 152C
Staphylococcus aureus
  Reduction in the concentration of pathogens: no measurable reduction
